From US20100022542A1, “COMPOUNDS EXHIBITING THROMBOPOIETIN RECEPTOR AGONISM” (Shionogi & Co., Ltd., priority 2000, published 2010)

Each compound was assayed against T1, human TPO receptor (hTPOR) (Homo sapiens, UniProt P40238) (assay: Proliferation of TPO dependent BaF/hTPOR cells, WST-1, thrombopoietic activity ED50 (Test Example 3)). Settings: 20 h incubation then WST-1 4 h, absorbance at 450 nm.
T1 construct: expressed in transfected cells; host or cells: BaF-B03 (murine IL-3 dependent cell line)
T1 sequence (P40238 26-635): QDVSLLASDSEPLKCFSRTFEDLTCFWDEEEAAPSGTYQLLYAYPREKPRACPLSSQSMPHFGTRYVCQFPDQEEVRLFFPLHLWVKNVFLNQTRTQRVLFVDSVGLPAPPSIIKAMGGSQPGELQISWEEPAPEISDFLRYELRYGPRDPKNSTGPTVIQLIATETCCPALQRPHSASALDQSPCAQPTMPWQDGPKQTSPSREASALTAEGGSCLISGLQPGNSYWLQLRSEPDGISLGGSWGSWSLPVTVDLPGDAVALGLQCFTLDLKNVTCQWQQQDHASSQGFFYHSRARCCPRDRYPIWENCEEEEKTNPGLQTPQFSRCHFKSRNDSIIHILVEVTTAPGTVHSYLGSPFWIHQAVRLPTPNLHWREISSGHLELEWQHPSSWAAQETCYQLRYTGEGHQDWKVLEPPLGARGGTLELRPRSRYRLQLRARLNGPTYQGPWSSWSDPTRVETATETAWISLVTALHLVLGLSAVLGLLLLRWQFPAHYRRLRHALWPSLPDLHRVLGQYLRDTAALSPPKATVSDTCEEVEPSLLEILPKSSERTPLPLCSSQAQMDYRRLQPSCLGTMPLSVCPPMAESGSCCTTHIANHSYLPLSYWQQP
Type: cell-based
Description: FIG. 2: The chart represents proliferation of the human TPO dependent cells bearing human TPO receptors by the present invention compound, wherein the x-axis is concentration of the present invention compound, and the y-axis is the absorbance as an indicator of cell proliferation. Open circles indicate a response of human TPO, and closed circles indicate a response of the compound (B-1).
The TPO dependent BaF/hTPOR cell line which was established by introducing human TPO receptor (hTPOR) into BaF-B03 cells according to Collins et al (J. Cell. Physiol., 137:293-298 (1988)) was used to test the thrombopoietic activity of the present compound. The DNA sequences and encoded peptide sequences for human hTPOR have been described by Vigon et al (Proc. Natl. Acad. Sci. USA, 89:5640-5644 (1992)). TPO dose not have any ability to support proliferation of interleukin-3 dependent parental cell line BaF-B03. BAF/hTPOR cells were maintained in RPMI medium and WEHI-3B conditioned medium as a source of murine interleukin-3 (IL-3). These cells were washed and resuspended in RPMI medium without a source of murine IL-3 and seeded into each well of 96-well microtiter plates at a density of 5×10^4 cells per well in the absence or presence of various concentration of hTPO or the present compound. After incubation at 37° C. for 20 hours in the 5% CO2 incubator, 10% WST-1 reagent (Takara Biomedicals, Japan) was added to each wells and the cells were further incubated for 4 hours. Effect of the present compound on the growth of BAF/mTPOR cell line which was established by introducing murine TPO receptor (mTPOR) into BAF-B03 cells is shown in FIG. 3. Table 8 exemplifies the ED50 for tested compounds of the present invention, wherein the ED50 is the half concentration of the concentration showing the maximum thrombopoietic activity.

| Structure (SMILES) | EC50 |
| --- | --- |
| O=C(O)/C(Cl)=C/c1ccc(C(=O)Nc2nc(-c3cc(F)ccc3F)cs2)cc1 [Compound A-58] | 497 nM |
| O=C(O)/C(Cl)=C/c1ccc(C(=O)Nc2nc(-c3ccc(F)c(-c4ccccc4)c3F)cs2)cc1 [Compound A-89] | 72 nM |
| COc1ccc(-c2csc(NC(=O)c3ccc(/C=C(\Cl)C(=O)O)cc3)n2)c(F)c1 [Compound A-61] | 207 nM |
| O=C(O)/C(Cl)=C/c1ccc(C(=O)Nc2nc(-c3ccc(F)c(F)c3)cs2)cc1 [Compound A-36] | 95 nM |
| O=C(O)C(F)=Cc1ccc(C(=O)Nc2nc(-c3ccc(C(F)(F)F)cc3)cs2)cc1 [Compound A-46] | 263 nM |
| CCOC(=O)/C(Cl)=C/c1ccc(C(=O)Nc2nc(-c3cccc(OC(F)(F)F)c3)cs2)cc1 [Compound A-31] | 56 nM |

Further lines, results first:

| EC50 | Structure (SMILES) |
| --- | --- |
| 398 nM | C/C(=C\c1ccc(C(=O)Nc2nc(-c3ccc(Cl)c(Cl)c3)cs2)cc1)C(=O)NC[Si](C)(C)C [Compound B-34] |
| 367 nM | C/C(=C\c1ccc(C(=O)Nc2nc(-c3ccc(F)c(F)c3)cs2)cc1)C(N)=O [Compound B-25] |
| 236 nM | C/C(=C\c1ccc(C(=O)Nc2nc(-c3ccc(Cl)c(Cl)c3)cs2)cc1)C(=O)Nc1nccs1 [Compound B-11] |
| 182 nM | C/C(=C\c1ccc(C(=O)Nc2nc(-c3ccc(Cl)c(Cl)c3)cs2)cc1)C(=O)NCc1ccco1 [Compound B-16] |
| 276 nM | CC(=Cc1ccc(C(=O)Nc2nc(-c3ccc(Cl)c(Cl)c3)cs2)cc1)c1ncc[nH]1 [Compound D-1] |
| 256 nM | COc1cc(C(=O)Nc2nc(-c3ccc(Cl)c(Cl)c3)cs2)ccc1C#CC(=O)O [Compound L-4] |
| 76 nM | O=C(O)/C(Cl)=C/c1ccc(C(=O)Nc2nc(-c3cccc(Cl)c3Cl)cs2)cc1 [Compound A-91] |
| 311 nM | Cc1sc(NC(=O)c2ccc(/C=C(\Cl)C(=O)O)cc2)nc1-c1ccc(F)cc1F [Compound J-11] |
| 378 nM | CC(=Cc1ccc(C(=O)Nc2nc(-c3ccc(Cl)c(Cl)c3)cs2)cc1)C(=O)N1CCOCC1 [Compound B-8] |
